Consider 21 molecules from article PMC5737116, “Biochemical Properties of Human D-Amino Acid Oxidase” (Frontiers in Molecular Biosciences, 2017).

Entries after “also recorded” stand apart in the source; their conditions may differ. Read-outs that look alike come from different tables or passages of the source.

In test [1] the target is T1, hDAAO holoenzyme (Homo sapiens, UniProt P14920).
T1 construct: made in house; host or cells: E. coli
As to the kind of experiment: Ligand binding to hDAAO, protein fluorescence quenching. Conditions: for Kd: 15°C.

In test [2] the target is T2, hDAAO (Homo sapiens, UniProt P14920).
T2 construct: made in house; host or cells: E. coli
As to the kind of experiment: Modulation of hDAAO activity, standard activity assay. Format: biochemical. The note with it: for effect on hDAAO activity on D-alanine: D-alanine 2 or 28 mM, simultaneous 10 mM magnesium ions and 10 μM nucleotide. How it is done:
The effect of MgCl2 and CaCl2 (1 or 10 mM), of 10 μM ATP or GTP and of both divalent ions and nucleotides was assessed using the standard activity assay.

The target in test [3] is T2, hDAAO. The test can be described thus: Oxygen-consumption activity assay, apparent kinetic parameters (substrate specificity). In kind it is biochemical. Conditions: for kcat / Km: apparent, 21% oxygen saturation, pH 8.5, 25°C; for oxidation by hDAAO: at 100 and 500 mM final concentration.
The target in test [4] is T2, hDAAO. Conditions: cited from earlier work.
The target in test [5] is T3, hDAAO apoprotein (Homo sapiens, UniProt P14920).
T3 construct: made in house; host or cells: E. coli
The test can be described thus: FAD binding to hDAAO apoprotein, protein fluorescence quenching. Conditions: 15°C. How it is done: Protein fluorescence spectra were measured at 1 μM protein concentration (0.04 mg/mL) in 20 mM Tris-HCl buffer, pH 8.0, 100 mM NaCl, 10% (v/v) glycerol, 5 mM 2-mercaptoethanol, and 40 μM FAD for the holoenzyme and in 50 mM sodium pyrophosphate, pH 8.3 for the apoprotein; spectra were recorded using a Jasco FP-750 instrument and were corrected for the buffer contribution. Protein fluorescence spectra were recorded between 300 and 400 nm, with excitation at 280 nm. […] In all cases, Kd-values were determined using an hyperbolic plot.

Test [6] deals with T3, hDAAO apoprotein. The test can be described thus: Holoenzyme reconstitution, decrease in flavin fluorescence at 528 nm. Format: binding. How it is done: The holoenzyme reconstitution process was also investigated by adding increasing concentrations of apoprotein to ~1 μM of FAD and following the decrease in flavin fluorescence at 528 nm (excitation at 450 nm).
For test [7], the target named is T3, hDAAO apoprotein. Conditions: cited from earlier work.
The target in test [8] is T2, hDAAO. As to the kind of experiment: Reduction of FAD following anaerobic addition of L-amino acid. Format: biochemical. The protocol:
The ability of L-serine to bind at the hDAAO active site like the corresponding D-enantiomer is further confirmed by the observed reduction of FAD following anaerobic addition of the L-amino acid: 14 μM of hDAAO was reduced by 1 mM L-serine in >60 min.

In test [9] the target is T2, hDAAO. As to the kind of experiment: Inhibition of D-serine oxidation by L-serine. In kind it is biochemical.
The target in test [10] is T2, hDAAO. The note with it: following enzyme inactivation; ref Kawazoe et al., 2006; cited from earlier work.
In test [11] the target is T2, hDAAO. The note with it: cited from earlier work. The source holds these as a separate data set.
For test [12], the target named is T1, hDAAO holoenzyme. As to the kind of experiment: Far-UV CD spectrum of hDAAO in the presence of ions and nucleotides. The note with it: 1 or 10 mM. The protocol:
Circular dichroism (CD) spectra were recorded using a Jasco J-815 spectropolarimeter (Jasco Co., Cremella, Italy) in 10 mM Tris-HCl, pH 8.0, 1% (v/v) glycerol, and 40 μM FAD. The cell path length was 0.1 cm for measurements in the 200- to 250-nm region (0.1 mg protein/mL) and 1 cm for measurements in the 250–350 nm range (0.4 mg protein/mL) (Caldinelli et al., [2010]).

Where [13] appears, read: apparent, 21% oxygen saturation, pH 8.5, 25°C, ref Molla et al., 2006.
[14] abbreviates: value in brackets, ref Raibekas et al., 2000.
The mark [15] stands for this setting: at pH 8.3, ref Kawazoe et al., 2007b.
[16] abbreviates: apparent, 21% oxygen saturation, pH 8.5, 25°C, ref Frattini et al., 2011.

T2 sequence (P14920 whole entry): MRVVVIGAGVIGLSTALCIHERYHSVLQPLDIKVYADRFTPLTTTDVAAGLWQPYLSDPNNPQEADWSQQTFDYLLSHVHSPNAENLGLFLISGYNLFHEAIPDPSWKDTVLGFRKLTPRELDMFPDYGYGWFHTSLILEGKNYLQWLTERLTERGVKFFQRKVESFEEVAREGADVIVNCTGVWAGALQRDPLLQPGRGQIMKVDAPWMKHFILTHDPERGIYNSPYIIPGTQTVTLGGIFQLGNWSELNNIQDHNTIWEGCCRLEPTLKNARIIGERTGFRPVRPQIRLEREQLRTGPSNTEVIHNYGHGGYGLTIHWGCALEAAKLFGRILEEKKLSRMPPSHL
T1 sequence (P14920 whole entry): as above
T3 sequence (P14920 whole entry): as above

For `Nc1ncnc2c1ncn2[C@@H]1O[C@H](COP(=O)(O)OP(=O)(O)OP(=O)(O)O)[C@@H](O)[C@H]1O` [ATP], the “change in protein fluorescence” value at hDAAO holoenzyme [1] (up to 20 mM) is reported as “no change”. In addition, the “effect on hDAAO activity on D-alanine” value on hDAAO [2] was “not modified”.

In general, Km refers to the substrate concentration at which the rate is half of its maximum. The term kcat denotes the maximal rate divided by the concentration of active sites. With `C[C@@H](N)C(=O)O` [D-Alanine], the specific activity at hDAAO [3] (saturating D-alanine concentration (28 mM), 25°C, pH 8.5, 200 μM FAD) is recorded as 9.5 U/mg protein. Moreover, at hDAAO [4] (setting [13]), the Michaelis-Menten constant (Km) was 1300 ± 200 µM and the kcat is 5.2 ± 0.1 s⁻¹. On hDAAO [4] (setting [14]), the Km is 1000 µM and the kcat was 10 s⁻¹.

On to `N[C@H](CC(=O)O)C(=O)O` [D-Aspartate], for which the kcat at hDAAO [4] (setting [13]) is 6.7 ± 1.2 s⁻¹; at hDAAO [4] (apparent, 21% oxygen saturation, pH 8.5, 25°C, ref Molla et al., 2006, listed as D-aspartate) it was 6.7 s⁻¹.

For the molecule `N[C@H](Cc1ccc(O)c(O)c1)C(=O)O` [D-DOPA, 3,4-dihydroxyphenylalanine], the Ki was 41300 µM at hDAAO [3] and 500 µM at hDAAO [4] (substrate inhibition effect, at pH 8.3, ref Kawazoe et al., 2007b). In addition, the values for the turnover number (kcat) at hDAAO [3] and on hDAAO [4] (setting [15]) were ~ 40 s^−1 and 21.7 s⁻¹, respectively. In addition, the results for the Michaelis constant (Km) on hDAAO [3] (read-out: Km) and on hDAAO [4] (setting [15]) were 6000 ± 1300 µM and 1500 µM, respectively.

`N[C@H](CCC(=O)O)C(=O)O` [D-Glutamate]: the “change in protein fluorescence” value on hDAAO holoenzyme [1] (up to 50 mM) is given as “no change”. In addition, on hDAAO [3], the Km result is listed as “b. d”, the turnover number (kcat) result is “b. d” and the “oxidation by hDAAO” value is reported as “not oxidized”.

For `Nc1ccccc1C(=O)C[C@@H](N)C(=O)O` [D-Kynurenine], the catalytic constant (kcat) on hDAAO [3] stood at 0.09 ± 0.01 s⁻¹. Also, at hDAAO [3] (read-out: Km), the Km was 700 ± 400 µM.

As to `N[C@H](Cc1ccccc1)C(=O)O` [D-Phenylalanine], the Km on hDAAO [4] (setting [16]) is 2700 ± 200 µM; at hDAAO [4] (setting [15]), 1200 µM. In addition, the catalytic constant (kcat) at hDAAO [4] (setting [16]) is 6.6 ± 0.1 s⁻¹; on hDAAO [4] (setting [15]) it was 15.5 s⁻¹.

Take `O=C(O)[C@H]1CCCN1` [D-Proline]: at hDAAO [4] (setting [13]), the Michaelis constant (Km) was 8500 ± 1000 µM and the kcat was 10.2 ± 0.1 s⁻¹.

`N[C@H](CO)C(=O)O` [D-Serine]: the Michaelis-Menten constant (Km) at hDAAO [4] (setting [13]) is 7500 ± 500 µM; on hDAAO [4] (setting [15]), 3900 µM; at hDAAO [4] (setting [14]), 1000 µM. The turnover number (kcat) was 3.0 ± 0.1 s⁻¹ at hDAAO [4] (setting [13]) and 4 s⁻¹ at hDAAO [4] (setting [15]).

Turning to `N[C@H](Cc1c[nH]c2ccccc12)C(=O)O` [D-Tryptophan], on hDAAO [4] (setting [16]), the Km is 1500 ± 100 µM and the turnover number (kcat) was 3.2 ± 0.1 s⁻¹.

For `N[C@H](Cc1ccc(O)cc1)C(=O)O` [D-Tyrosine], on hDAAO [4] (setting [15]), the Km is 1100 µM and the kcat was 14.8 s⁻¹.

In the case of `Cc1cc2nc3c(=O)[nH]c(=O)nc-3n(C[C@H](O)[C@H](O)[C@H](O)COP(=O)(O)OP(=O)(O)OC[C@H]3O[C@@H](n4cnc5c(N)ncnc54)[C@H](O)[C@@H]3O)c2cc1C` [FAD], the Kd was 0.43 ± 0.02 µM at hDAAO apoprotein [5] (7 μM benzoate, read-out: Kd, first phase); 19.1 ± 2.8 µM at hDAAO apoprotein [5] (7 μM benzoate, read-out: Kd, second phase); 0.48 ± 0.02 µM at hDAAO apoprotein [5] (70 μM benzoate, read-out: Kd, single saturation); 0.43 ± 0.02 µM at hDAAO apoprotein [5] (absence of active-site ligand, read-out: Kd, first phase); greater than 30 µM at hDAAO apoprotein [5] (absence of active-site ligand, read-out: Kd, second phase); 0.4 ± 0.04 µM on hDAAO apoprotein [6] (70 μM benzoate, monophasic, read-out: Kd). Besides, the Kd on hDAAO apoprotein [6] (absence of benzoate, ~1 μM FAD titrated with apoprotein, read-out: Kd, 1) was 0.67 ± 0.07 µM; at hDAAO apoprotein [6] (absence of benzoate, ~1 μM FAD titrated with apoprotein, read-out: Kd, 2), 4 ± 0.9 µM; at hDAAO apoprotein [7] (benzoate binding, ref Molla et al., 2006, Caldinelli et al., 2010, read-out: Kd, flavin interaction with benzoate bound), 0.3 µM; at hDAAO apoprotein [7] (interaction with the flavin cofactor, ref Molla et al., 2006, read-out: Kd), 8 µM. For the same molecule, the “fold tighter interaction with FAD in the presence of an active site ligand” value on hDAAO apoprotein [7] (active site ligand such as benzoate, ref Molla et al., 2006) was 20 fold.

On to `Nc1nc2c(ncn2[C@@H]2O[C@H](COP(=O)(O)OP(=O)(O)OP(=O)(O)O)[C@@H](O)[C@H]2O)c(=O)[nH]1` [GTP], for which the “effect on hDAAO activity on D-alanine” value on hDAAO [2] is “not modified”.

For `NCC(=O)O` [Glycine], the “change in protein fluorescence” value on hDAAO holoenzyme [1] (up to 50 mM) was “no change”. For the same molecule, at hDAAO [3], the “apparent Km, fold higher than physiological concentration” value is recorded as ~ 1,000 fold. The kcat on hDAAO [4] (setting [13]) is given as ~ 0.9 s^−1.

Take `CC(=O)N[C@@H](CS)C(=O)O` [L-NAC, N-acetyl-L-cysteine]: the “effect on hDAAO activity” value on hDAAO [2] (1 or 10 mM, even when added 60 min before the assay) is given as “does not affect; also recorded: not altered”.

Turning to `N[C@@H](CO)C(=O)O` [L-serine], the “time for reduction of hDAAO flavin” value at hDAAO [8] (14 μM hDAAO, 1 mM L-amino acid, anaerobic) is on record as greater than 60 min. Also, the type of inhibition result on hDAAO [9] (D-serine oxidation at increasing L-serine concentrations) is reported as “competitive inhibitor”. For the same molecule, at hDAAO [9] (competitive versus D-serine), the Ki was 26200 µM.

For the molecule `CN[C@H](CC(=O)O)C(=O)O` [N-Methyl-D-aspartate], on hDAAO [8] (compared with L-serine, not shown), the “reduction of FAD following anaerobic addition” value is reported as “not”. The “change in protein fluorescence” value on hDAAO holoenzyme [1] (up to 50 mM) is reported as “no change”. In addition, on hDAAO [3], the Km result was “b. d”, the turnover number (kcat) result was “b. d” and the “oxidation by hDAAO” value is reported as “not oxidized”.

Take `O=C(O)c1ccccc1` [benzoate]: the Ki at hDAAO [10] is 7 µM. In addition, the Kd on hDAAO holoenzyme [1] (higher ligand concentrations, ~80% of fluorescence change, read-out: Kd, second saturation) is 2590 ± 680 µM; on hDAAO holoenzyme [1] (low benzoate concentrations (≤ 20 μM), read-out: Kd, first saturation) it was 0.33 ± 0.04 µM; on hDAAO [11] (CD signal at ~270 nm, ref Caldinelli et al., 2010), 9.5 µM; on hDAAO [11] (formation of a shoulder at 484 nm in the absorbance spectrum, ref Raibekas et al., 2000, Molla et al., 2006), 5 to 7 µM.

With `[Ca+2]` [calcium ions], the “effect on far-UV CD spectrum / protein conformation” value on hDAAO holoenzyme [12] is given as “slightly modified”.

For `CN(C)CCCN1c2ccccc2Sc2ccc(Cl)cc21` [chlorpromazine], the “competition with FAD for the binding to hDAAO apoprotein” value on hDAAO apoprotein [7] (ref Iwana et al., 2008, Sacchi et al.) is “compete with FAD”.

In the case of `[Mg+2]` [magnesium ions], on hDAAO holoenzyme [12], the “effect on far-UV CD spectrum / protein conformation” value is “do not modify”. Moreover, on hDAAO [2] (1 or 10 mM final concentration), the “effect on hDAAO activity” value is “do not modify”.
